Laboratory results published in patent US20240108654A1, “COMBINATION OF A T CELL THERAPY AND A DGK INHIBITOR” (Juno Therapeutics, Inc., priority 2021, published 2024).
Read-outs that look alike come from different tables or passages of the source.

Legend:
human DGKα = human DGKα (Homo sapiens (Human), UniProt P23743); assay: DGKα liposome (LIPGLO) in vitro DGK inhibition assay; format: biochemical; conditions: extruded liposome substrate; 150 μM ATP; 5 nM enzyme; read-out: DGKa LIPGLO IC50
human DGKζ = human DGKζ (Homo sapiens (Human), UniProt Q13574); assay: DGKζ liposome (LIPGLO) in vitro DGK inhibition assay; format: biochemical; conditions: extruded liposome substrate; 150 μM ATP; 5 nM enzyme; read-out: DGKz LIPGLO IC50
human DGKζ, sequence (Q13574 other isoform, or with tags, fused parts or gaps isoform Q13574-4): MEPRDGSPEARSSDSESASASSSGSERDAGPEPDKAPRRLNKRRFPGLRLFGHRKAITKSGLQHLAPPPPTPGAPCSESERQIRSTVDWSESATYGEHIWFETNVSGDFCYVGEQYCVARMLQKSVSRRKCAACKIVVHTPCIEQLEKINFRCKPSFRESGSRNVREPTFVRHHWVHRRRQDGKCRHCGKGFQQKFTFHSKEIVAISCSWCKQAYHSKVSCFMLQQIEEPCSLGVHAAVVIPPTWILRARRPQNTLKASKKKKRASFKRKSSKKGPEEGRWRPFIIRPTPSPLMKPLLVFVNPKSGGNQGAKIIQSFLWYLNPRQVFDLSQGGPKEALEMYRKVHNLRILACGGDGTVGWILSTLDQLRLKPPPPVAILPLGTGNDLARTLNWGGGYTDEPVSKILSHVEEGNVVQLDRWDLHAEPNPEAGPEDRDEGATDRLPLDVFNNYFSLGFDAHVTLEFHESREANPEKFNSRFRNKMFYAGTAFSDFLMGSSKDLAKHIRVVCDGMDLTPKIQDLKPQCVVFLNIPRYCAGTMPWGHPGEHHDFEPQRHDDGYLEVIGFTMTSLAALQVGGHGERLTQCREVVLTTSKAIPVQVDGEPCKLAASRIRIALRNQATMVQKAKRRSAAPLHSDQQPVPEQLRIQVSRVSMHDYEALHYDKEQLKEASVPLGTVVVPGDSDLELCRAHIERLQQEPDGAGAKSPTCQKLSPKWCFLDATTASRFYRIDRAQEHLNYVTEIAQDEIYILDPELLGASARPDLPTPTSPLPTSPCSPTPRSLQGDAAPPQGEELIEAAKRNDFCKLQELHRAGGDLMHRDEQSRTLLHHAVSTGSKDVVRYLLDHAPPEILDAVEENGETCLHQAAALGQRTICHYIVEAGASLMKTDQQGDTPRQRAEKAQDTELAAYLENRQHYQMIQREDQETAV
Procedure: The DGKα and DGKζ reactions were performed using either extruded liposome (DGKα and DGKζ LIPGLO assays) or detergent/lipid micelle substrate (DGKα and DGKζ assays). The reactions were carried out in 50 mM MOPS pH 7.5, 100 mM NaCl, 10 mM MgCl2, 1 μM CaCl2), and 1 mM DTT (assay buffer). The reactions using a detergent/lipid micelle substrate also contained 50 mM octyl B-D-glucopyranoside. The lipid substrate concentrations were 11 mM PS and 1 mM DAG for the detergent/lipid micelle reactions. The lipid substrate concentrations were 2 mM PS, 0.25 mM DAG, and 2.75 mM PC for the extruded liposome reactions. The reactions were carried out in 150 μM ATP. The enzyme concentrations for the DGKα and DGKζ were 5 nM.
The compound inhibition studies were carried out as follows: 50 nL droplets of each test compound (top concentration 10 mM with 11 point, 3-fold dilution series for each compound) solubilized in DMSO were transferred to wells of a white 1536 well plate (Corning 3725). A 5 mL enzyme/substrate solution at 2× final reaction concentration was prepared by combining 2.5 mL 4× enzyme solution (20 nM DGKα or DGKζ (prepared as described below) in assay buffer) and 2.5 mL of either 4× liposome or 4× detergent/lipid micelle solution (compositions described below) and incubated at room temperature for 10 minutes. Next, 1 μL 2× enzyme/substrate solution was added to wells containing the test compound and reactions were initiated with the addition of 1 μL 300 uM ATP. The reactions were allowed to proceed for 1 hr, after which 2 μL Glo Reagent (Promega V9101) was added and incubated for 40 minutes. Next, 4 μL Kinase Detection Reagent was added and incubated for 30 minutes. Luminescence was recorded using an EnVision microplate reader. […] The compounds were evaluated at 11 concentrations to determine IC50.
The lipid composition was 5 mol % DAG (Avanti 8008110), 40 mol % PS (Avanti 840035P), and 55 mol % PC (Avanti 850457) at a total lipid concentration of 15.2 mg/mL for the 4× liposome solution. The PC, DAG, and PS were dissolved in chloroform, combined, and dried in vacuo to a thin film. The lipids were hydrated to 20 mM in 50 mM MOPS pH 7.5, 100 mM NaCl, 5 mM MgCl2, and were freeze-thawed five times. The lipid suspension was extruded through a 100 nm polycarbonate filter eleven times. Dynamic light scattering was carried out to confirm liposome size (50-60 nm radius). The liposome preparation was stored at 4° C. for as long as four weeks.
Human DGK-alpha-TVMV-His-pFBgate and human DGK-zeta-transcript variant-2-TVMV-His-pFBgate baculovirus samples were generated using the Bac-to-Bac baculovirus expression system (Invitrogen) according to the manufacturer's protocol. The DNA used for expression of DGK-alpha and DGK-zeta have SEQ ID NOs: 251 and 252, respectively. Baculovirus amplification was achieved using infected Sf9 cells at 1:1500 virus/cell ratios, and grown for 65 hours at 27° C. post-transfection.
The expression scale up for each protein was carried out in the Cellbag 50 L WAVE-Bioreactor System 20/50 from GE Healthcare Bioscience. 12 L of 2×10^6 cells/mL Sf9 cells (Expression System, Davis, CA) grown in ESF921 insect medium (Expression System) were infected with virus stock at 1:200 virus/cell ratios, and grown for 66-68 hours at 27° C. post-infection. The infected cell culture was harvested by centrifugation at 2000 rpm for 20 min 4° C. in a SORVALL® RC12BP centrifuge. The cell pellets were stored at −70° C. until purification. […]

Human venous whole blood = assay: Human whole blood IFN-γ assay; format: cell-based; conditions: anti-CD3 and anti-CD28 1 μg/mL each, 3 μM reference compound as 100% activation, read-out: INFg Whole Blood Normalized Agonist EC50
Procedure: Human venous whole blood (22.5 μL per well), obtained from healthy donors, was pre-treated with compounds for one hour at 37° C. in a humidified 95% air/5% CO2 incubator. The blood was stimulated with 2.5 μL anti-human CD3 and anti-CD28 mAb at a final concentration of 1 μg/mL each for 24 hours at 37° C. IFN-γ in the supernatants was measured using ALphLISA kit (Cat #AL217).

naïve human CD8 T cells = assay: Human CD8 T cells IFN-γ assay; format: cell-based; conditions: anti-CD3 plus anti-CD28 as baseline, 3 μM reference compound as 100% activation, 20 h, read-out: HuCD8 INFG Normalized EC50
Procedure: Frozen naïve human CD8 T cells were thawed in AIM-V media, incubated for 2 h in 37° C., and counted. The 384-well tissue culture plate was coated overnight at 4° C. with 20 μL anti-human CD3 at 0.05 μg/mL in PBS, which was removed off the plate before 40,000 cells per 40 microliters CD8 T cells with 0.1 μg/mL soluble anti-human CD28 were added to each well. The compounds were transferred using an Echo liquid handler to the cell plate immediately after the cells were plated. After 20 h incubation at 37° C. incubator, 3 microliters per well supernatants transferred into anew 384-well white assay plate for cytokine measurement.
Interferon-γ (IFN-γ) was quantitated using the AlphLISA kit (Cat #AL217) as described by the manufacturer manual (Perkin Elmer). The counts from each well were converted to IFN-γ concentration (pg/mL).

[1] = system: OT-1 antigen-specific CD8+ T cells with SIINFEKL-loaded MC38 tumor cells; assay: Murine cytotoxic T lymphocyte (CTL) assay, IFN-γ readout; format: cell-based, mouse; conditions: IFN-γ in supernatant after 24 hours, AlphaLisa; read-out: msCTL INFg IC50
Text: An antigen-specific cytolytic T-cell (CTL) assay was developed to evaluate functionally the ability of DGKα and DGKζ inhibitors to enhance effector T cell mediated tumor cell killing activity. CD8+ T-cells isolated from the OT-1 transgenic mouse recognize antigen presenting cells, MC38, that present the ovalbumin derived peptide […]. Recognition of the cognate antigen initiates the cytolytic activity of the OT-1 antigen-specific CD8+ T cells.
Functional CTL cells were generated as follows: OT-1 splenocytes from 8-12 week old mice were isolated and expanded in the presence of the […] peptide at 1 μg/mL and mIL2 at 10 U/mL. After three days, fresh media with […] was added. On day 5 of the expansion, the CD8+ T cells were isolated and ready for use. Activated CTL cells may be stored frozen for 6 months. Separately, one million MC38 tumor cells were pulsed with 1 μg/mL of […]-OVA peptide for 3 hours at 37° C. The cells were washed (3×) with fresh media to remove excess peptide. Finally, CTL cells that were pretreated with DGK inhibitors for 1 hour in a 96-well U bottom plate were combined with the antigen loaded MC38 tumor cells at a 1:10 ratio. The cells were then spun at 700 rpm for 5 min and placed in an incubator overnight at 37° C. After 24 hours, the supernatant was collected for analysis of IFN-γ cytokine levels by AlphaLisa purchased from Perkin Elmer.

human DGKα, sequence (P23743 other isoform, or with tags, fused parts or gaps): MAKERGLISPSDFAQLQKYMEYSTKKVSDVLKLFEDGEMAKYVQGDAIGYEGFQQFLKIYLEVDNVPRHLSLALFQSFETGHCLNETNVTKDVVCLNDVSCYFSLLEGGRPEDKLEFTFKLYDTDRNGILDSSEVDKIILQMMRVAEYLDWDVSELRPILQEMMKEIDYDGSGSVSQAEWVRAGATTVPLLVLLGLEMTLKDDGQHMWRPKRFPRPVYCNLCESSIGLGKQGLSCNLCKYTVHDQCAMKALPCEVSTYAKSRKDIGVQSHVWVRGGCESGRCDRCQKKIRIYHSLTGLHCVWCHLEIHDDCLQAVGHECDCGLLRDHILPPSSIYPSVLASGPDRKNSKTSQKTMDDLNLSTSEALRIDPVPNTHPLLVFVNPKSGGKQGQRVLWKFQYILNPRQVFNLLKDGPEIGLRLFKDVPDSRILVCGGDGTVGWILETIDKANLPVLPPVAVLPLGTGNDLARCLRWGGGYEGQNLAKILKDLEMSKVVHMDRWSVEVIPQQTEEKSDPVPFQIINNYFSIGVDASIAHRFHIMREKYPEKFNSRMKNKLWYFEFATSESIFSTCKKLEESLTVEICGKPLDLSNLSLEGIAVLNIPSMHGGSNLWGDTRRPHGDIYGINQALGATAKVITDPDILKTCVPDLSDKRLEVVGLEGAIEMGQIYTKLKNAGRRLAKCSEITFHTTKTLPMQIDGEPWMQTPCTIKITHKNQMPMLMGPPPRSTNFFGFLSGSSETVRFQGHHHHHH

IC50 (human DGKα) [nM]	IC50 (human DGKζ) [nM]	SMILES	EC50 (Human venous whole blood; 24 hours) [nM]	other results
570	460	CCC(c1ccc(F)cc1F)N1C[C@H](C)N(c2cc(=O)n(C)c3ccc(C#N)nc23)C[C@H]1C (mixture of isomers) [Compound 12, 8-((2S,5R)-4-(1-(2,4-difluorophenyl)propyl)-2,5-dimethylpiperazin-1-yl)-5-methyl-6-oxo-5,6-dihydro-1,5-naphthyridine-2-carbonitrile]		
		CC[C@@H]1CN(c2nc(=O)n(C)c3ccc(C#N)nc23)[C@@H](C)CN1C(c1ccc(F)cc1)c1ccc(C(F)(F)F)cn1 (single isomer, unassigned) [Compound 22]		EC50 (Human venous whole blood; Homo sapiens, 24 h): 20 nM
		CC[C@@H]1CN(c2nc(=O)n(C)c3ccc(C#N)nc23)[C@@H](C)CN1C(c1ccc(F)cc1)c1ccc(C(F)(F)F)cn1 (stereo partly drawn) [Compound 21, 4-((2S,5R)-5-Ethyl-4-((4-fluorophenyl)(5-(trifluoromethyl)pyridin-2-yl)methyl)-2-methylpiperazin-1-yl)-1-methyl-2-oxo-1,2-dihydropyrido[3,2-d]pyrimidine-6-carbonitrile]		EC50 (Human venous whole blood; Homo sapiens, 24 h): 43 nM
67	29	CCC1CN(C(c2ccc(F)cc2)c2nc(C3CC3)no2)C(CC)CN1c1nc(=O)n(C)c2ccc(C#N)nc12 (single isomer, unassigned) [Compound 25]	15	
		CC[C@@H]1CN(c2nc(=O)n(C)c3ccc(C#N)nc23)[C@@H](C)CN1C(C)c1ccc(C(F)(F)F)cc1 (single isomer, unassigned) [Compound 19]	520	
		CC[C@@H]1CN(c2nc(=O)n(C)c3ccc(C#N)nc23)[C@@H](C)CN1C(C)c1ccc(C(F)(F)F)cc1 (single isomer, unassigned) [Compound 20]	32	
		C[C@@H]1CN(c2cc(=O)n(C)c3ccc(C#N)nc23)[C@@H](C)CN1C(c1ccccc1)c1ccc(F)cc1 (single isomer, unassigned) [Compound 7]	570	EC50 (naïve human CD8 T cells): 47 nM; IC50 [1]: 64 nM
14	33	CCC1CN(C(c2ccc(F)cc2)c2nc(C3CC3)no2)C(CC)CN1c1nc(=O)n(C)c2ccc(C#N)nc12 (single isomer, unassigned) [Compound 26]	90	
870	1600	C[C@@H]1CN(c2cc(=O)n(C)c3ccc(C#N)nc23)[C@@H](C)CN1C(c1ccccc1)c1ccc(F)cc1 (stereo partly drawn) [Compound 5, 8-[(2S,5R)-4-[(4-fluorophenyl)(phenyl)methyl]-2,5-dimethylpiperazin-1-yl]-5-methyl-6-oxo-5,6-dihydro-1,5-naphthyridine-2-carbonitrile]		
		CCC(c1ccc(C(F)(F)F)cc1)N1C[C@H](CC)N(c2nc(=O)n(C)c3ccc(C#N)nc23)C[C@H]1CC (stereo partly drawn) [Compound 18, 4-((2S,5R)-2,5-Diethyl-4-(1-(4-(trifluoromethyl)phenyl)propyl)piperazin-1-yl)-1-methyl-2-oxo-1,2-dihydropyrido[3,2-d]pyrimidine-6-carbonitrile]	3750	
		CC[C@@H]1CN(c2nc(=O)n(C)c3ccc(C#N)nc23)[C@@H](C)CN1C(c1ccc(Cl)cc1)c1ccccn1 (single isomer, unassigned) [Compound 23]	10500	
		CC[C@@H]1CN(c2nc(=O)n(C)c3ccc(C#N)nc23)[C@@H](C)CN1C(c1ccc(Cl)cc1)c1ccccn1 (single isomer, unassigned) [Compound 24]	200	
670	320	Cc1ccc(C(c2ccc(F)cc2)N2C[C@H](C)N(c3cc(=O)n(C)c4ccc(C#N)nc34)C[C@H]2C)cc1 (stereo partly drawn) [Compound 10, 8-[(2S,5R)-4-[(4-fluorophenyl)(4-methylphenyl)methyl]-2,5-dimethylpiperazin-1-yl]-5-methyl-6-oxo-5,6-dihydro-1,5-naphthyridine-2-carbonitrile]		EC50 (naïve human CD8 T cells; Homo sapiens, T-cell): 23 nM; EC50 (Human venous whole blood; Homo sapiens, 24 h): 440 nM
